One assay deals with T1, Msm. GyrB (Mycolicibacterium smegmatis, UniProt A0QNE0).
T1 construct: 15 nM Msm; GyrB, 650 μM ATP, and compound in dimethyl sulfoxide
Put plainly: Msmegmatis GyrB enzyme assay (ATPase, malachite green phosphate detection). The assay is classed as biochemical. The note with it: read-out: Msm_GyrB IC50. In a few lines: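 ATPase activity of 15 nM Msm. GyrB was measured with 650 μM ATP in 50 mM HEPES pH 7.7 containing 250 mM potassium glutamate, 200 mM KCl, 2 mM MgCl2, 2% glycerol, 1 mM DTT and 0.005% Brij-35, with compound added in DMSO. Released phosphate was detected with an ammonium molybdate/malachite green reagent plus stabilizer.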

Another assay has as its system Spn548. Put plainly: Bacterial susceptibility testing in liquid media, Spn548 MIC. The note with it: Streptococcus pneumoniae, 24 h, read-out: Spn548 Mean MIC.
For another assay, the system named is M. tuberculosis. Put plainly: Mycobacteria susceptibility testing, Microplate Alamar Blue Assay, Mtu MIC. The assay is classed as cell-based, Mycobacterium tuberculosis (Mtu). The note with it: Mycobacterium tuberculosis. (The colour change of resazurin is a common sign of viable cells or microbes.)
A further assay relates to Eco-tolC. Put plainly: Bacterial susceptibility testing in liquid media, Eco-tolC MIC. As to conditions: Escherichia coli, read-out: Eco-tolC MIC.

≈ marks a conversion by molar mass, not a printed value.

T1 sequence (A0QNE0 whole entry): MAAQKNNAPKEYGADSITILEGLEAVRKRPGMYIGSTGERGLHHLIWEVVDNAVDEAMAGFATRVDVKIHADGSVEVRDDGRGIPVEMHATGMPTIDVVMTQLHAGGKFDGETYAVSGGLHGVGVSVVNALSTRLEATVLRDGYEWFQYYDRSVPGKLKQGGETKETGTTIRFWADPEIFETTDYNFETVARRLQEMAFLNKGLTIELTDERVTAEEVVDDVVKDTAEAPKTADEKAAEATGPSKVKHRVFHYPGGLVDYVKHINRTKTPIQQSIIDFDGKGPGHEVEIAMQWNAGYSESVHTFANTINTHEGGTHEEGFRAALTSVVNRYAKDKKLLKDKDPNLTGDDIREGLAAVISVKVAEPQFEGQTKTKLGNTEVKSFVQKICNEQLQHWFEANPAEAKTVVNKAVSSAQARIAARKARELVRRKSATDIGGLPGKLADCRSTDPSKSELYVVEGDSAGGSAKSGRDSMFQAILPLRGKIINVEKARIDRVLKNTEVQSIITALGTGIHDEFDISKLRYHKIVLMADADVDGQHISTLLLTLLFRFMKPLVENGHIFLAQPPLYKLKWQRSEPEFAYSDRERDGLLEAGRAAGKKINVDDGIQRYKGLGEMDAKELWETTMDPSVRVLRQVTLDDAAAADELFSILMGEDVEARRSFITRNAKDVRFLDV
Description for Eco-tolC: Compounds may be tested for antimicrobial activity by susceptibility testing in liquid media. Compounds may be dissolved in dimethylsulfoxide and tested in 10 doubling dilutions in the susceptibility assays. The organisms used in the assay may be grown overnight on suitable agar media and then suspended in a liquid medium appropriate for the growth of the organism. The suspension can be a 0.5 McFarland and a further 1 in 10 dilution can be made into the same liquid medium to prepare the final organism suspension in 100 μL. Plates can be incubated under appropriate conditions at 37° C. for 24 hrs prior to reading.

For the molecule `CCNC(=O)Nc1nc2cc(-c3cccnc3OC)c(OCC3CCOCC3)nc2s1` [Example 61, 1-ethyl-3-[6-(2-methoxypyridin-3-yl)-5-(tetrahydro-2H-pyran-4-ylmethoxy)[1,3]thiazolo[5,4-b]pyridin-2-yl]urea], on Msm. GyrB, the 50% inhibitory concentration (IC50) turned out to be 4.74 nM. Further, the MIC is 0.25 µg/mL (≈ 0.564 µM) with Spn548, more than 4 µg/mL against M. tuberculosis and 16 µg/mL (≈ 36.1 µM) with Eco-tolC.
The matching figures for `CCNC(=O)Nc1nc2cc(-c3c(C)noc3C)c(OCC3CCOCC3)nc2s1` [Example 62, 1-[6-(3,5-dimethylisoxazol-4-yl)-5-(tetrahydro-2H-pyran-4-ylmethoxy)[1,3]thiazolo[5,4-b]pyridin-2-yl]-3-ethylurea]: 727 nM, 8 µg/mL (≈ 18.5 µM), more than 4 µg/mL and 64 µg/mL (≈ 148 µM).
Regarding `CCNC(=O)Nc1nc2cc(-c3cncnc3)c(OC[C@H]3CCCO3)nc2s1` [Example 63, 1-ethyl-3-{6-pyrimidin-5-yl-5-[(2R)-tetrahydrofuran-2-ylmethoxy][1,3]thiazolo[5,4-b]pyridin-2-yl}urea], the half-maximal inhibitory concentration (IC50) at Msm. GyrB was 2.6 nM. Also, the MIC was found to be 0.125 µg/mL (≈ 0.312 µM) in the assay with Spn548, 0.25 µg/mL (≈ 0.624 µM) in the assay with M. tuberculosis and 1 µg/mL (≈ 2.5 µM) in the assay on Eco-tolC.
As to `CCNC(=O)Nc1nc2cc(-c3cncnc3)c(OC3CCOC3)nc2s1` (stereo not drawn) [Example 64, 1-ethyl-3-[6-pyrimidin-5-yl-5-(tetrahydrofuran-3-yloxy)[1,3]thiazolo[5,4-b]pyridin-2-yl]urea], the IC50 on Msm. GyrB was less than 2.54 nM. In addition, the MIC in the assay on Spn548 was 0.125 µg/mL (≈ 0.323 µM); with M. tuberculosis, 0.125 µg/mL (≈ 0.323 µM); in the assay on Eco-tolC, 0.5 µg/mL (≈ 1.29 µM).
For `CCNC(=O)Nc1nc2cc(-c3cncnc3)c(N[C@@H](C)C(=O)OCC)nc2s1` [Example 65, Ethyl N-{2-[(ethylcarbamoyl)amino]-6-pyrimidin-5-yl[1,3]thiazolo[5,4-b]pyridin-5-yl}-L-alaninate], on Msm. GyrB, the 50% inhibitory concentration (IC50) was less than 2.54 nM. Besides, the MIC with Spn548 is 0.125 µg/mL (≈ 0.301 µM); in the assay on M. tuberculosis, 0.125 µg/mL (≈ 0.301 µM); in the assay on Eco-tolC, 4 µg/mL (≈ 9.63 µM).
For `CCNC(=O)Nc1nc2cc(-c3cnc(C#N)nc3)c(OCC3CCOC3)nc2s1` (stereo not drawn) [Example 66, 1-[6-(2-cyanopyrimidin-5-yl)-5-(tetrahydrofuran-3-ylmethoxy)[1,3]thiazolo[5,4-b]pyridin-2-yl]-3-ethylurea], the IC50 at Msm. GyrB was less than 2.54 nM. The MIC in the assay on Spn548 is 0.125 µg/mL (≈ 0.294 µM); in the assay on M. tuberculosis, less than 0.043 µg/mL; in the assay on Eco-tolC, 0.5 µg/mL (≈ 1.18 µM).
For `CCNC(=O)Nc1nc2cc(-c3cncnc3)c(N[C@@H](C)C(=O)NC)nc2s1` [Example 67, (2S)-2-[[2-(ethylcarbamoylamino)-6-pyrimidin-5-yl-thiazolo[4,5-e]pyridin-5-yl]amino]-N-methyl-propanamide], in that order: 15.9 nM, 2 µg/mL (≈ 4.99 µM), 1.41 µg/mL (≈ 3.53 µM) and more than 64 µg/mL.
The matching figures for `CCNC(=O)Nc1nc2cc(-c3ccc(C(F)(F)F)nc3)c(OCC3CCOC3)nc2s1` (stereo not drawn) [Example 70, 1-ethyl-3-{5-(tetrahydrofuran-3-ylmethoxy)-6-[6-(trifluoromethyl)pyridin-3-yl][1,3]thiazolo[5,4-b]pyridin-2-yl}urea]: 6.92 nM, 0.0625 µg/mL (≈ 0.134 µM), 4.76 µg/mL (≈ 10.2 µM) and 0.25 µg/mL (≈ 0.535 µM).
On to `CCNC(=O)Nc1nc2cc(-c3ccc(F)nc3)c(OC3C=CCCC3)nc2s1` (stereo not drawn) [Example 72, 1-[5-(cyclohex-2-en-1-yloxy)-6-(6-fluoropyridin-3-yl)[1,3]thiazolo[5,4-b]pyridin-2-yl]-3-ethylurea], for which the IC50 at Msm. GyrB turned out to be 29.1 nM. In addition, the MIC with Spn548 came out at 0.0625 µg/mL (≈ 0.151 µM); against M. tuberculosis it was 2 µg/mL (≈ 4.84 µM); in the assay with Eco-tolC, 0.25 µg/mL (≈ 0.605 µM).

One may read the IC50 as the point on the concentration scale where inhibition reaches its midpoint. The MIC is the lowest concentration found to suppress growth.

For the origin of these results see patent US20100137303A1, “NEW COMPOUND 255” (AstraZeneca AB, priority 2008, published 2010).
